Results published in PMC9604400, “Synthesis, Anticancer and Antitubercular Properties of New Chalcones and Their Nitrogen-Containing Five-Membered Heterocyclic Hybrids Bearing Sulfonamide Moiety” (International Journal of Molecular Sciences, 2022).

Legend:
[1] = system: OVCAR-3; test: NCI-60 screen (SRB), ovarian cancer; details: Homo sapiens
[2] = system: MDA-MB-231/ATCC; test: NCI-60 screen (SRB), breast cancer; details: Homo sapiens
[3] = system: UO-31; test: NCI-60 screen (SRB), renal cancer; details: Homo sapiens
[4] = system: SNB-75; test: NCI-60 screen (SRB), CNS cancer; details: Homo sapiens
[5] = system: DU-145; test: NCI-60 screen (SRB), prostate cancer; details: Homo sapiens
[6] = system: NCI/ADR-RES; test: NCI-60 screen (SRB), ovarian cancer; details: Homo sapiens
[7] = system: 786-0; test: NCI-60 screen (SRB), renal cancer; details: Homo sapiens
[8] = system: MOLT-4; test: NCI-60 screen (SRB), leukemia; details: Homo sapiens
[9] = system: MDA-MB-468; test: NCI-60 screen (SRB), breast cancer
[10] = system: EKVX; test: NCI-60 screen (SRB), non-small cell lung cancer; details: Homo sapiens
[11] = system: OVCAR-5; test: NCI-60 screen (SRB), ovarian cancer; details: Homo sapiens
[12] = system: SK-MEL-5; test: NCI-60 screen (SRB), melanoma; details: Homo sapiens
[13] = system: ACHN; test: NCI-60 screen (SRB), renal cancer; details: Homo sapiens
[14] = system: SK-OV-3; test: NCI-60 screen (SRB), ovarian cancer; details: Homo sapiens
[15] = system: K-562; test: NCI-60 screen (SRB), leukemia; details: Homo sapiens
[16] = system: CAKI-1; test: NCI-60 screen (SRB), renal cancer; details: Homo sapiens
[17] = system: 60 human cancer cell lines; test: NCI-60 screen (SRB), whole panel; assay type: cell-based; details: Homo sapiens
[18] = system: HCT-116; test: NCI-60 screen (SRB), colon cancer; details: Homo sapiens
[19] = system: A549/ATCC; test: NCI-60 screen (SRB), non-small cell lung cancer; details: Homo sapiens
[20] = system: IGROV1; test: NCI-60 screen (SRB), ovarian cancer; details: Homo sapiens
[21] = system: KM12; test: NCI-60 screen (SRB), colon cancer; details: Homo sapiens
[22] = system: UACC-257; test: NCI-60 screen (SRB), melanoma; details: Homo sapiens
[23] = system: HCT-15; test: NCI-60 screen (SRB), colon cancer; details: Homo sapiens
[24] = system: NCI-H226; test: NCI-60 screen (SRB), non-small cell lung cancer; details: Homo sapiens
[25] = system: CCRF-CEM; test: NCI-60 screen (SRB), leukemia; details: Homo sapiens
[26] = system: SR; test: NCI-60 screen (SRB), leukemia; details: Homo sapiens
[27] = system: RPMI-8226; test: NCI-60 screen (SRB), leukemia; details: Homo sapiens
[28] = system: SF-295; test: NCI-60 screen (SRB), CNS cancer; details: Homo sapiens
[29] = system: MALME-3M; test: NCI-60 screen (SRB), melanoma; details: Homo sapiens
[30] = system: U251; test: NCI-60 screen (SRB), CNS cancer; details: Homo sapiens
[31] = system: RXF 393; test: NCI-60 screen (SRB), renal cancer
[32] = system: BT-549; test: NCI-60 screen (SRB), breast cancer; details: Homo sapiens
[33] = system: PC-3; test: NCI-60 screen (SRB), prostate cancer; details: Homo sapiens

COc1cc(OC)c(S(N)(=O)=O)cc1C(=O)C=Cc1ccccc1 [Compound 17a, 5-Cinnamoyl-2,4-dimethoxybenzenesulfonamide]
IC50 ([1]; OVCAR-3): 2.71 µM
CC50 ([1]; OVCAR-3, read-out: LC50): 38.3 µM
IC50 ([2]; MDA-MB-231): 11.9 µM
CC50 ([2]; MDA-MB-231, read-out: LC50): 61.6 µM
IC50 ([3]; UO-31): 4.76 µM
CC50 ([3]; UO-31, read-out: LC50): 43.5 µM
IC50 ([4]; SNB-75): 2.08 µM
CC50 ([4]; SNB-75, read-out: LC50): 26.9 µM
IC50 ([5]; DU-145): 1.88 µM
CC50 ([5]; DU-145, read-out: LC50): 38.1 µM
IC50 [6]: 15.5 µM
CC50 ([6]; read-out: LC50): > 100 µM
IC50 ([7]; 786-0): 4.82 µM
CC50 ([7]; 786-0, read-out: LC50): 63.2 µM
IC50 ([8]; MOLT-4): 10.1 µM
CC50 ([8]; MOLT-4, read-out: LC50): > 100 µM
IC50 ([9]; Homo sapiens, MDA-MB-468): 1.2 µM
CC50 ([9]; Homo sapiens, MDA-MB-468, read-out: LC50): 43.9 µM
lethality ([9]; MDA-MB-468, single dose 10 μM): 43.37%
IC50 [10]: 14.2 µM
CC50 ([10]; read-out: LC50): 53.6 µM
IC50 ([11]; OVCAR-5): 13.2 µM
CC50 ([11]; OVCAR-5, read-out: LC50): 53.7 µM
IC50 ([12]; SK-MEL-5): 17.6 µM
CC50 ([12]; SK-MEL-5, read-out: LC50): 59.7 µM
IC50 [13]: 6.99 µM
CC50 ([13]; read-out: LC50): 44.8 µM
IC50 ([14]; SK-OV-3): 14.4 µM
CC50 ([14]; SK-OV-3, read-out: LC50): 52.9 µM
IC50 ([15]; K562): 1.5 µM
CC50 ([15]; K562, read-out: LC50): > 100 µM
IC50 ([16]; CAKI-1): 1.86 µM
CC50 ([16]; CAKI-1, read-out: LC50): 39.5 µM
IC50 ([17]; five-dose screen, read-out: IC50 values against most cell lines (range)): 0.34 to 17.6 µM
inhibition at 10 µM ([17]; single dose 10 μM, mean over 60 cell lines, over 100% = cell death, read-out: Mean growth inhibition (GI) percentage): 71.8%
IC50 ([18]; HCT-116): 1.49 µM
CC50 ([18]; HCT-116, read-out: LC50): 67.2 µM
IC50 ([19]; A549): 10.5 µM
CC50 ([19]; A549, read-out: LC50): 49 µM
IC50 ([20]; IGROV-1): 9.74 µM
CC50 ([20]; IGROV-1, read-out: LC50): 77 µM
IC50 ([21]; KM12): 3.31 µM
CC50 ([21]; KM12, read-out: LC50): 62.3 µM
IC50 ([22]; UACC-257): 9.96 µM
CC50 ([22]; UACC-257, read-out: LC50): 47.8 µM
IC50 ([23]; HCT-15): 3.55 µM
CC50 ([23]; HCT-15, read-out: LC50): 57.5 µM
IC50 ([24]; NCI-H226): 10 µM
CC50 ([24]; NCI-H226, read-out: LC50): 69.2 µM
IC50 [25]: 3.93 µM
CC50 ([25]; read-out: LC50): > 100 µM
IC50 [26]: 1.73 µM
CC50 ([26]; read-out: LC50): > 100 µM
IC50 ([27]; RPMI-8226): 2.98 µM
CC50 ([27]; RPMI-8226, read-out: LC50): > 100 µM
IC50 ([28]; SF-295): 15.7 µM
CC50 ([28]; SF-295, read-out: LC50): 58.2 µM
IC50 [29]: 13.9 µM
CC50 ([29]; read-out: LC50): 61.9 µM
IC50 ([30]; U-251): 2.92 µM
CC50 ([30]; U-251, read-out: LC50): 39.2 µM
IC50 ([31]; Homo sapiens, RXF 393): 1.9 µM
CC50 ([31]; Homo sapiens, RXF 393, read-out: LC50): 30 µM
lethality ([31]; RXF 393, single dose 10 μM): 29.73%
IC50 ([32]; BT-549): 2.65 µM
CC50 ([32]; BT-549, read-out: LC50): 40.6 µM
IC50 ([33]; PC-3): 5.95 µM
CC50 ([33]; PC-3, read-out: LC50): 50.4 µM
